{"source": "patent US20230330125A1", "about": "“ORAL COMPOSITION COMPRISING S-ADENOSYL METHIONINE AND A PROBIOTIC AND ITS USE FOR TREATING AND/OR PREVENTING MOOD DISORDERS” (Montefarmaco OTC S.p.A., priority 2020, published 2023)", "key": {"[1]": {"system": "Lactobacillus helveticus R0052", "experiment": "Liquid compatibility method (pH monitoring of strain growth with SAMe)", "format": "cell-based", "procedure": "The study was carried out in a first phase with SAMe+Lactobacillus helveticus R0052, not microencapsulated, through a liquid compatibility method. The initial population tested was 15.10^E9 CFU/g units at 500 mg of SAMe. For this evaluation a pHmeter with 8 probes was used, and values were verified every 15 minutes.\nThe strains are inoculated into a liquid medium suitable for their growth, only under […] conditions (reason why in this way the Bifidobacterium is not tested), and the active substance is inoculated into the sample and not into the control.\nFrom an operational point of view: the vial is filled with the liquid medium (50 ml RCM); the active, which should have been tested directly in its granulated form in the vial, is added, and it is mixed. Then the pH of the medium in the presence of the active is verified, if necessary, the pH is adjusted so that it is comprised between 6.5 and 7. R0052 strain is therefore inoculated (batch U12171600, 500.10^E9 CFU/g) into the vial. The sample is diluted 1/100 with Dilumat to obtain a dilution to 5.10^E9 CFU/ml and finally it is inoculated with 3 ml into the 50 ml RCM vial, obtaining […]. The vial is placed in warm bath, at 37°, and the pH started to be recorded for 18 hours."}, "R0052 probiotic strain": {"system": "R0052 probiotic strain", "experiment": "Microbiological test, CFU count in Petri dish with SAMe", "format": "cell-based, Lactobacillus helveticus", "conditions": "SAMe marketed formulation 500 mg dose, vs probiotic strain only", "procedure": "(§1) 1.2 MICROBIOLOGICAL TEST: within the bio-compatibility study a microbiological evaluation was carried out. R0052 and R0175 probiotic strains were cultured in a Petri dish, in the presence of the active (SAMe, marketed formulation) at a 500 mg dose (as above). A sample was also analyzed as a reference of probiotic strain only, so that it could be compared with the addition of the active on the result in Colony-Forming Units (CFU). […] This is easily justified by the simple analytical error, known in the microbiological field."}, "R0175 probiotic strain": {"system": "R0175 probiotic strain", "experiment": "Microbiological test, CFU count in Petri dish with SAMe", "format": "cell-based, Bifidobacterium longum", "conditions": "SAMe marketed formulation 500 mg dose, vs probiotic strain only", "procedure": "as §1"}, "[2]": {"conditions": "cited from earlier work"}}}
{"compound": "C[S+](CC[C@H](N)C(=O)O)C[C@H]1O[C@@H](n2cnc3c(N)ncnc32)[C@H](O)[C@@H]1O", "note": "(some centres unmarked) [SAMe, S-adenosyl methionine]", "values": [{"measurement": "pH of medium, R0052 in contact with SAMe, final", "setting": "[1]; 500 mg SAMe, RCM medium, 37°, after pH decrease over 18 hours recording", "result": 4.2}, {"measurement": "pH of medium, R0052 in contact with SAMe, initial", "setting": "[1]; 500 mg SAMe, RCM medium, 37°, start of 18 hours recording", "result": 7.2}, {"measurement": "Compatibility of L. helveticus R0052 strain with SAMe", "setting": "[1]; conclusion from acidification", "result": "compatible"}, {"measurement": "pH of the active (SAMe) alone", "setting": "[1]; without strain, RCM medium, 37°, remains essentially unchanged", "result": "7-7.5"}, {"measurement": "Modification of CFU count", "setting": "R0052 probiotic strain", "result": "up to 5%"}, {"measurement": "Modification of CFU count", "setting": "R0175 probiotic strain", "result": "up to 5%"}, {"measurement": "Plasma levels of the unmodified molecule", "setting": "[2]; oral intake", "result": "5-10 % of the administered dose"}, {"measurement": "Plasma bioavailability", "setting": "[2]; parenteral (intravenous or intramuscular) route", "result": "90-100 % of the administered dose"}]}
